# Calls of active or inactive are those of the source. The calls are words filed in the database; no cut-off is given here.
# Assays:
# [1] = Octanol-water partition coefficient, logP of the compound at 2 uM after 20 hrs by HPLC analysis; format: physicochemical
# Staphylococcus aureus [2] = assay: Photodynamic antimicrobial activity against Staphylococcus aureus ATCC 29213 preincubated for 15 mins followed by irradiation with 90 mW/cm^2 light for 15 mins and measured after 24 hrs; format: functional; settings: ATCC 29213, light or radiation study, time 24.5 hrs
# Candida albicans [3] = assay: Photodynamic antimicrobial activity against Candida albicans ATCC 14053 preincubated for 15 mins followed by irradiation with 90 mW/cm^2 light for 15 mins and measured after 24 hrs; format: functional; settings: ATCC 14053, light or radiation study, time 24.5 hrs
# Candida albicans [4] = assay: Photodynamic antimicrobial activity against Candida albicans ATCC14053 assessed as loss of microbial viability at 2 uM preincubated for 15 mins followed by light irradiation at 81 J/cm^2 dose for 15 mins and measured after 36 hrs; format: functional; settings: time 36.5 hrs
# Staphylococcus aureus [5] = assay: Photodynamic antimicrobial activity against methicillin resistant Staphylococcus aureus ATCC43300 preincubated for 15 mins followed by irradiation with 90 mW/cm^2 light for 15 mins and measured after 24 hrs; format: functional; settings: ATCC43300, light or radiation study, time 24.5 hrs
# [6] = Drug uptake in Staphylococcus aureus ATCC 29213 at 10 uM incubated at 37 degree for 15 mins by UV-vis absorption spectra analysis relative to control; format: ADME; settings: 0.25 h
# [7] = Drug uptake in Escherichia coli ATCC 25922 at 10 uM incubated at 37 degree for 15 mins by UV-vis absorption spectra analysis relative to control; format: ADME; settings: 0.25 h
# Candida albicans [8] = assay: Drug uptake in Candida albicans ATCC 14053 at 10 uM incubated at 37 degree for 15 mins by UV-vis absorption spectra analysis relative to control; format: ADME, organism-based; settings: 0.25 h
# Escherichia coli [9] = assay: Photodynamic antimicrobial activity against Escherichia coli ATCC 25922 preincubated for 15 mins followed by irradiation with 90 mW/cm^2 light for 15 mins and measured after 24 hrs; format: functional; settings: ATCC 25922, light or radiation study, time 24.5 hrs
# Staphylococcus aureus [10] = assay: Photodynamic antimicrobial activity against Staphylococcus aureus […] assessed as loss of microbial viability at 2 uM preincubated for 15 mins followed by light irradiation at 81 J/cm^2 dose for 15 mins and measured after 36 hrs; format: functional; settings: time 36.5 hrs
# Staphylococcus aureus [11] = assay: Photodynamic antimicrobial activity against methicillin resistant Staphylococcus aureus ATCC43300 assessed as log count reduction in viable cells at 1.25 uM incubated in dark for 15 mins followed by light irradiation at 81 J/cm^2 dose for 15 mins and measured after 36 hrs; format: functional; settings: time 36.5 hrs
# Staphylococcus aureus [12] = assay: Photodynamic antimicrobial activity against Staphylococcus aureus […] assessed as decrease in viable cell log count at 5 uM preincubated for 15 mins followed by light irradiation at 81 J/cm^2 dose for 15 mins and measured after 36 hrs; format: functional; settings: time 36.5 hrs
# Escherichia coli [13] = assay: Induction of morphological changes in Escherichia coli ATCC 25922 at 10 uM preincubated for 15 mins followed by light irradiation at 90 mW/cm2 for 15 mins by SEM analysis; format: functional, organism-based; settings: time 30.0 min
# Staphylococcus aureus [14] = assay: Photodynamic antimicrobial activity against methicillin resistant Staphylococcus aureus ATCC43300 assessed as log count reduction in viable cells at 0.625 uM preincubated in dark for 15 mins followed by light irradiation at 81 J/cm^2 dose for 15 mins and measured after 36 hrs; format: functional; settings: time 36.5 hrs
# Staphylococcus aureus [15] = assay: Induction of morphological changes in Staphylococcus aureus ATCC 29213 at 10 uM preincubated for 15 mins followed by light irradiation at 90 mW/cm2 for 15 mins by SEM analysis; format: functional, organism-based; settings: time 30.0 min
# Candida albicans [16] = assay: Induction of ROS generation in Candida albicans ATCC14053 at 0.16 to 20 uM preincubated for 15 mins followed by irradiation with 81 J/cm^2 light for 15 mins by DCFH-DA staining-based fluorescence microscopy analysis; format: functional, organism-based; settings: dose 0.16-20 µM, time 30.0 min
# Escherichia coli [17] = assay: Photodynamic antimicrobial activity against Escherichia coli ATCC25922 assessed as loss of microbial viability at 2 uM preincubated for 15 mins followed by light irradiation at 81 J/cm^2 dose for 15 mins and measured after 36 hrs; format: functional, ATCC 25922; settings: time 36.5 hrs
# Escherichia coli [18] = assay: Photodynamic antimicrobial activity against Escherichia coli ATCC25922 assessed as bacterial clearance ratio at 1.25 uM preincubated for 15 mins in dark followed by irradiation with 27 J/cm^2 light for 5 mins and measured after 36 hrs; format: functional, ATCC 25922; settings: time 2180 min, 36.33 h
# HaCaT [19] = assay: Dark toxicity against human HaCat cells assessed as reduction in cell survival upto 20 uM incubated under dark condition for 15 mins by CCK-8 assay; format: cell-based; settings: 0.25 h
# Escherichia coli [20] = assay: Photodynamic antimicrobial activity against Escherichia coli ATCC25922 assessed as bacterial clearance ratio at 1.25 uM preincubated for 15 mins in dark followed by irradiation with 81 J/cm^2 light for 20 to 25 mins and measured after 36 hrs; format: functional, ATCC 25922; settings: time 2195-2200 min
# Cell membrane [21] = assay: Induction of cell membrane disruption in Escherichia coli ATCC25922 at 5 uM preincubated for 15 mins followed by irradiated with 81 J/cm^2 light for 15 mins by DAPI staining based confocal laser scanning microscopic analysis; settings: Escherichia coli ATCC 25922, time 30.0 min
# Escherichia coli [22] = assay: Photodynamic antimicrobial activity against Escherichia coli ATCC25922 assessed as bacterial clearance ratio at 1.25 uM preincubated for 15 mins in dark followed by irradiation with 81 J/cm^2 light for 15 mins and measured after 36 hrs; format: functional, ATCC 25922; settings: time 2190 min, 36.5 h
# Escherichia coli [23] = assay: Photodynamic antimicrobial activity against Escherichia coli ATCC25922 assessed as bacterial clearance ratio at 1.25 uM preincubated for 15 mins in dark followed by irradiation with 54 J/cm^2 light for 10 mins and measured after 36 hrs; format: functional, ATCC 25922; settings: time 2185 min, 36.42 h
# Cell membrane [24] = assay: Induction of cell membrane disruption in Candida albicans ATCC14053 at 2.5 uM preincubated for 15 mins followed by irradiated with 81 J/cm^2 light for 15 mins by DAPI staining based confocal laser scanning microscopic analysis; settings: time 30.0 min
# Candida albicans [25] = assay: Photodynamic antimicrobial activity against Candida albicans ATCC14053 assessed as reduction in viable cells log count at 0.5 uM preincubated in dark for 15 mins followed by light irradiation at 81 J/cm^2 dose for 15 mins and measured after 36 hrs; format: functional; settings: time 36.5 hrs
# HaCaT [26] = assay: Cytotoxicity against human HaCat Cells assessed as reduction in cell survival preincubated for 15 mins followed by irradiated with light at 81 J/cm^2 for 15 mins and measured after 24 hrs by CCK-8 assay; format: cell-based; settings: light or radiation study
# Candida albicans [27] = assay: Induction of morphological changes in Candida albicans ATCC 14053 at 10 uM preincubated for 15 mins followed by light irradiation at 90 mW/cm2 for 15 mins by SEM analysis; format: functional, organism-based; settings: time 30.0 min
# Staphylococcus aureus [28] = assay: In vivo antibacterial activity against Staphylococcus aureus ATCC29213 infected in Swiss albino mouse assessed as reduction in neutophils count at 10 mg treated on day 2 post infection and followed by irradiation with 81 J/cm^2 light for 15 mins and measured every 3 days upto 8 days by H and E staining analysis; format: functional, organism-based; settings: time 8.0 day
# Candida albicans [29] = assay: Photodynamic antimicrobial activity against Candida albicans ATCC14053 assessed as reduction in viable cells log count at 1 uM preincubated in dark for 15 mins followed by light irradiation at 81 J/cm^2 dose for 15 mins and measured after 36 hrs; format: functional; settings: time 36.5 hrs
# Cell membrane [30] = assay: Induction of cell membrane disruption in Staphylococcus aureus ATCC29213 at 2.5 uM preincubated for 15 mins followed by irradiated with 81 J/cm^2 light for 15 mins by DAPI staining based confocal laser scanning microscopic analysis; settings: time 30.0 min
# Staphylococcus aureus [31] = assay: Photodynamic antimicrobial activity against Staphylococcus aureus […] assessed as decrease in viable cell log count at 0.31 uM preincubated for 15 mins followed by light irradiation at 81 J/cm^2 dose for 15 mins and measured after 36 hrs; format: functional; settings: time 36.5 hrs
# Staphylococcus aureus [32] = assay: In vivo antibacterial activity against Staphylococcus aureus ATCC29213 infected in Swiss albino mouse assessed as wound healing at 10 mg treated on day 2 post infection and followed by irradiation with 81 J/cm^2 light for 15 mins and measured every 3 days upto 8 days; format: functional, organism-based; settings: time 8.0 day
compound,measurement,setting,value
CC1=C(I)C(C)=[N+]2C1=C(c1ccncc1)c1c(C)c(I)c(C)n1[B-]2(F)F,"logP at 20 h, 2 µM",[1],> 4
CCCCCCC[n+]1cccc(C2=C3C(C)=C(I)C(C)=[N+]3[B-](F)(F)n3c(C)c(I)c(C)c32)c1.[I-],MIC,Staphylococcus aureus [2],2.5 µM
same,MIC,Candida albicans [3],1.25 µM
same,Activity,Candida albicans [4],Active
same,MIC,Staphylococcus aureus [5],0.63 µM
same,Drug uptake,[6],72%
same,Drug uptake,[7],61%
same,Drug uptake,Candida albicans [8],27%
same,"logP at 20 h, 2 µM",[1],> 4
same,MIC,Escherichia coli [9],0.63 µM
same,Activity,Staphylococcus aureus [10],>99.9999%
CC1=C(I)C(C)=[N+]2C1=C(c1cccnc1)c1c(C)c(I)c(C)n1[B-]2(F)F,"logP at 20 h, 2 µM",[1],> 4
CC1=C(I)C(C)=[N+]2C1=C(c1ccc[n+](C)c1)c1c(C)c(I)c(C)n1[B-]2(F)F.[I-],log(activity),Staphylococcus aureus [11],>6.7
same,log(activity),Staphylococcus aureus [12],7.05
same,Activity,Escherichia coli [13],inactive
same,MIC,Staphylococcus aureus [2],1.25 µM
same,log(activity),Staphylococcus aureus [14],3.8
same,MIC,Candida albicans [3],0.63 µM
same,Activity,Staphylococcus aureus [15],inactive
same,Activity,Candida albicans [16],Active
same,Activity,Escherichia coli [17],99.9999%
same,Activity,Candida albicans [4],>99.9%
same,Activity,Escherichia coli [18],99.23%
same,Activity,HaCaT [19],Non-Toxic
same,Activity,Escherichia coli [20],>99.9998%
same,MIC,Staphylococcus aureus [5],0.63 µM
same,Activity,Cell membrane [21],Active
same,Activity,Escherichia coli [22],>99.9998%
same,Activity,Escherichia coli [23],99.97%
same,Activity,Cell membrane [24],Active
same,Drug uptake,[6],56%
same,Drug uptake,[7],47%
same,Activity,Candida albicans [25],98%
same,Drug uptake,Candida albicans [8],9%
same,IC50,HaCaT [26],3.86 µM
same,Activity,Candida albicans [27],inactive
same,Activity,Staphylococcus aureus [28],Active
same,"logP at 20 h, 2 µM",[1],1.44
same,Activity,Candida albicans [29],99.99%
same,MIC,Escherichia coli [9],0.63 µM
same,Activity,Staphylococcus aureus [10],>99.9999%
same,Activity,Cell membrane [30],Active
same,log(activity),Staphylococcus aureus [31],3.59
same,Activity,Staphylococcus aureus [32],Active
